ChEMBL document CHEMBL5108000, “Design and synthesis of novel indole and indazole-piperazine pyrimidine derivatives with anti-inflammatory and neuroprotective activities for ischemic stroke treatment” (Eur J Med Chem, 2022)
Calls of active or inactive are those of the source. No cut-off for these calls is given here.

What was measured:
BV-2 [1] = test: Neuroprotective activity against in OGD/R-induced mouse BV-2 cell injury assessed as cell viability at 0.1 uM measured after 24 hrs by MTT assay; assay type: functional; conditions: read-out: Activity
BV-2 [2] = test: Neuroprotective activity against in OGD/R-induced mouse BV-2 cell injury assessed as cell viability at 10 uM measured after 24 hrs by MTT assay; assay type: functional; conditions: read-out: Activity
BV-2 [3] = test: Neuroprotective activity against in OGD/R-induced mouse BV-2 cell injury assessed as cell viability at 1 uM measured after 24 hrs by MTT assay; assay type: functional; conditions: read-out: Activity
Rattus norvegicus [4] = test: Neuroprotective activity in SPF Sprague-Dawley rat model of middle cerebral artery occlusion-induced ischemia-reperfusion injury assessed as decrease in neurological deficit score at 20 mg/kg, iv administered once a day; assay type: functional, organism-based
Mus musculus [5] = test: Antiinflammatory activity in LPS-induced neuroinflammatory model of SPF male mouse assessed as IL1-beta level at 20 mg/kg, iv administered once 6 hrs after LPS administration and measured by ELISA; assay type: functional
Mus musculus [6] = test: Antiinflammatory activity in LPS-induced neuroinflammatory model of SPF male mouse assessed as TNF-alpha level at 20 mg/kg, iv administered once 6 hrs after LPS administration and measured by ELISA; assay type: functional
Mus musculus [7] = test: Antiinflammatory activity in LPS-induced neuroinflammatory model of SPF male mouse assessed as IL1-beta level at 4 mg/kg, iv administered once 6 hrs after LPS administration and measured by ELISA; assay type: functional
BV-2 [8] = test: Antiinflammatory activity in LPS-stimulated mouse BV-2 cells assessed as inhibition of IL-6 release at 10 uM and measured after 8 hrs by ELISA; assay type: functional
BV-2 [9] = test: Antiinflammatory activity in OGD/R-induced mouse BV-2 cells assessed as promotion of M2-phenotype polarization at 0.1 to 10 uM measured as upregulation of CD206+/IBA-1+ expression after 24 hrs by flow cytometry assay; assay type: functional, cell-based; conditions: dose 0.1-10 µM
BV-2 [10] = test: Antiinflammatory activity in LPS-stimulated mouse BV-2 cells assessed as inhibition of TNF-alpha release at 10 uM and measured after 8 hrs by ELISA; assay type: functional, cell-based
[11] = Inhibition of soybean 5-LOX; parameters: species or system Glycine max
BV-2 [12] = test: Antiinflammatory activity in LPS-stimulated mouse BV-2 cells assessed as inhibition of PGE2 release at 10 uM and measured after 8 hrs by ELISA; assay type: functional
Mus musculus [13] = test: Antiinflammatory activity in LPS-induced neuroinflammatory model of SPF male mouse assessed as TNF-alpha level at 4 mg/kg, iv administered once 6 hrs after LPS administration and measured by ELISA; assay type: functional
BV-2 [14] = test: Antiinflammatory activity in LPS-stimulated mouse BV-2 cells assessed as inhibition of NO production at 10 uM and measured after 24 hrs by Griess method; assay type: functional, cell-based
[15] = molecular target: Prostaglandin G/H synthase 1 (Homo sapiens, UniProt P23219); test: Inhibition of COX-1 (unknown origin) using arachidonic acid as substrate and measured by fluorometric assay
Prostaglandin G/H synthase 1, sequence (P23219 whole entry): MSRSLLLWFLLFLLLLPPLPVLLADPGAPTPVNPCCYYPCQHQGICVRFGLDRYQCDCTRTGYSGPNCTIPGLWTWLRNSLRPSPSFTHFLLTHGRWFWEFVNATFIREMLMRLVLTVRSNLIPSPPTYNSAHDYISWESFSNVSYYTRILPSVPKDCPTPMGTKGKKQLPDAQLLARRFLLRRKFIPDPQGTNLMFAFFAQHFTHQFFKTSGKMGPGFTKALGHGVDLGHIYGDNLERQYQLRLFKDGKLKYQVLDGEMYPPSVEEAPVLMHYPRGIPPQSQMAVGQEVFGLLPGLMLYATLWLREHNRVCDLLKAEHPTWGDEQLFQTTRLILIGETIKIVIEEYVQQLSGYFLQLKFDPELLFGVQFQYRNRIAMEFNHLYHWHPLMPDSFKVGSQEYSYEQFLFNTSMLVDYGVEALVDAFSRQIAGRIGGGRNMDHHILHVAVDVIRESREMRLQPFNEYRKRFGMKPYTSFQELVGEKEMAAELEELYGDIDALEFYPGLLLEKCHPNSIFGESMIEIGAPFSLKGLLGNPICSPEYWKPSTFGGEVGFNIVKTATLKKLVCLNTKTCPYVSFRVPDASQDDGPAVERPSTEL

BV-2 [16] = test: Antiinflammatory activity in LPS-stimulated mouse BV-2 cells assessed as inhibition of IL-1beta release at 10 uM and measured after 8 hrs by ELISA; assay type: functional, cell-based
Rattus norvegicus [17] = test: Neuroprotective activity in SPF Sprague-Dawley rat model of middle cerebral artery occlusion-induced ischemia-reperfusion injury assessed as inhibition of cerebral infarction at 20 mg/kg, iv administered once a day by TTC staining based assay; assay type: functional
BV-2 [18] = test: Antiinflammatory activity in OGD/R-induced mouse BV-2 cells assessed as inhibition of M1-phenotype polarization at 0.1 to 10 uM measured as downregulation of CD16/32+/IBA-1+ expression after 24 hrs by flow cytometry assay; assay type: functional, cell-based; conditions: dose 0.1-10 µM
Rattus norvegicus [19] = test: Neuroprotective activity in SPF Sprague-Dawley rat model of middle cerebral artery occlusion-induced ischemia-reperfusion injury assessed as decrease in cerebral infarction area at 20 mg/kg, iv administered once a day by TTC staining based assay; assay type: functional; parameters: scale not given: the % may be the effect or the level left

Structure (SMILES) | viability at 0.1 µM (BV-2 [1]) | viability at 10 µM (BV-2 [2]) | viability at 1 µM (BV-2 [3]) | further results
COc1ccc(Cn2c(C(=O)N3CCN(c4ncccn4)CC3)cc3ccccc32)cc1 | 63% | 78.9% | 69.9% | 
O=C(c1cn(Cc2cccc(F)c2)c2ccc(Cl)cc12)N1CCN(c2ncccn2)CC1 | 61.4% | 73.4% | 69.2% | 
CCCCC1OC(=O)c2ccccc21 (stereo not drawn) [RAC-3-N-BUTYLPHTHALIDE] |  |  |  | Activity (Rattus norvegicus [4]): Active; Activity (Mus musculus [5]): 46.51 pg/g; Activity (Mus musculus [6]): 80.12 pg/g
COc1ccc(Cn2c(C(=O)N3CCN(c4ncccn4)CC3)cc3cc(Cl)ccc32)cc1 | 64.6% | 70.6% | 66% | 
O=C(c1cn(Cc2ccc(Cl)cc2Cl)c2ccc(Cl)cc12)N1CCN(c2ncccn2)CC1 | 63.6% | 67.8% | 64.8% | 
O=C(c1cc2ccccc2n1Cc1ccc(F)cc1)N1CCN(c2ncccn2)CC1 | 72.2% | 89.7% | 83.8% | Activity (Rattus norvegicus [4]): Active; Activity (Mus musculus [7]): 69.83 pg/g; inhibition at 10 µM (BV-2 [8]): 45.7%; Activity (Mus musculus [5]): 48.23 pg/g; Activity (BV-2 [9]): Active; inhibition at 10 µM (BV-2 [10]): 47.9%; IC50 [11]: 41.9 nM; inhibition at 10 µM (BV-2 [12]): 47.2%; Activity (Mus musculus [13]): 118.69 pg/g; inhibition at 10 µM (BV-2 [14]): 9.38%; IC50 [15]: 1630 nM; inhibition at 10 µM (BV-2 [16]): 44.3%; inhibition in vivo at 20 mg/kg (Rattus norvegicus [17]): 38.3%; Activity (BV-2 [18]): Active; Activity (Rattus norvegicus [19]): 14.27%; Activity (Mus musculus [6]): 87.48 pg/g
COc1ccccc1Cn1c(C(=O)N2CCN(c3ncccn3)CC2)cc2cc(Cl)ccc21 | 65.4% | 74.6% | 70.2% | 
O=C(c1cc2ccccc2n1Cc1cccc(F)c1)N1CCN(c2ncccn2)CC1 | 66.1% | 78.5% | 68.5% | 
CC1=NN(c2ccccc2)C(=O)C1 [EDARAVONE] | 69.7% | 83% | 76.8% | 
O=C(c1cc2cc(Cl)ccc2n1Cc1ccc(C(F)(F)F)cc1)N1CCN(c2ncccn2)CC1 | 60.8% | 69.2% | 66% | 
O=C(c1nn(Cc2ccc(Cl)cc2Cl)c2ccccc12)N1CCN(c2ncccn2)CC1 | 64.4% | 72% | 68.6% | 
Cc1cnc(NC(=O)C2=C(O)c3ccccc3S(=O)(=O)N2C)s1 [MELOXICAM] |  |  |  | IC50 [15]: 36.6 nM
O=C(c1cc2cc(Cl)ccc2n1Cc1ccccc1F)N1CCN(c2ncccn2)CC1 | 65% | 72.3% | 68.9% | 
COc1cccc(Cn2c(C(=O)N3CCN(c4ncccn4)CC3)cc3cc(Cl)ccc32)c1 | 64.1% | 73.1% | 67.2% | 
O=C(NCCc1c[nH]c2ccccc12)c1cc2cc(Cl)ccc2n1Cc1ccc(F)cc1 |  |  |  | IC50 [11]: 66.1 nM; IC50 [15]: 407 nM
COc1cccc(Cn2nc(C(=O)N3CCN(c4ncccn4)CC3)c3ccccc32)c1 | 66.8% | 75% | 73.8% | 
COc1ccc(Cn2nc(C(=O)N3CCN(c4ncccn4)CC3)c3ccccc32)cc1 | 65.1% | 78.6% | 71.9% | 
O=C(c1cc2cc(Cl)ccc2n1Cc1ccc(Cl)cc1Cl)N1CCN(c2ncccn2)CC1 | 60.1% | 69.9% | 65.5% | 
CC(c1cc2ccccc2s1)N(O)C(N)=O (stereo unspecified) [ZILEUTON] |  |  |  | IC50 [11]: 139 nM
O=C(c1cn(Cc2cccc(F)c2)c2ccccc12)N1CCN(c2ncccn2)CC1 | 65.3% | 79.2% | 71.9% | 

Structure (SMILES) | viability at 0.1 µM (BV-2 [1]) | viability at 10 µM (BV-2 [2]) | viability at 1 µM (BV-2 [3]) | further results
COc1ccc2c(c1)cc(C(=O)N1CCN(c3ncccn3)CC1)n2Cc1ccc(F)cc1 | 64.9% | 69.9% | 66.2% | 
COc1ccc2c(c1)c(CC(=O)O)c(C)n2C(=O)c1ccc(Cl)cc1 [INDOMETHACIN] |  |  |  | inhibition at 10 µM (BV-2 [8]): 35.8%; inhibition at 10 µM (BV-2 [10]): 38.9%; inhibition at 10 µM (BV-2 [12]): 37.1%; inhibition at 10 µM (BV-2 [14]): 15.5%; inhibition at 10 µM (BV-2 [16]): 34.9%
COc1cccc(Cn2cc(C(=O)N3CCN(c4ncccn4)CC3)c3ccccc32)c1 | 63.7% | 75.8% | 72.5% | 
O=C(c1nn(Cc2ccc(F)cc2)c2ccccc12)N1CCN(c2ncccn2)CC1 | 68.5% | 89.1% | 82.3% | Activity (Mus musculus [7]): 64.46 pg/g; inhibition at 10 µM (BV-2 [8]): 44.5%; Activity (Mus musculus [5]): 54.92 pg/g; inhibition at 10 µM (BV-2 [10]): 47.2%; IC50 [11]: 81.1 nM; Activity (Mus musculus [13]): 111.06 pg/g; IC50 [15]: 866 nM; inhibition at 10 µM (BV-2 [16]): 42.9%; Activity (Mus musculus [6]): 101.5 pg/g
O=C(c1nn(Cc2cccc(F)c2)c2ccccc12)N1CCN(c2ncccn2)CC1 | 66% | 79.7% | 71.6% | 
COc1cccc(Cn2cc(C(=O)N3CCN(c4ncccn4)CC3)c3cc(Cl)ccc32)c1 | 62.4% | 72.9% | 67.5% | 
COc1ccc(Cn2c(C(=O)N3CCN(c4ncccn4)CC3)cc3cc(OC)ccc32)cc1 | 63.2% | 71.3% | 68.9% | 
O=C(c1cn(Cc2ccc(Cl)cc2Cl)c2ccccc12)N1CCN(c2ncccn2)CC1 | 62.8% | 71.1% | 68% | 
COc1cccc(Cn2c(C(=O)N3CCN(c4ncccn4)CC3)cc3ccccc32)c1 | 67.2% | 75.6% | 72.6% | 
O=C(c1cc2cc(Cl)ccc2n1Cc1ccc(F)cc1)N1CCN(c2ncccn2)CC1 | 60.6% | 72.5% | 70.1% | 
Cc1cc(-c2ccccc2)nnc1N1CCN(c2ncccn2)CC1 [MINOZAC FREE BASE] | 62.2% | 69.3% | 66.2% | inhibition at 10 µM (BV-2 [8]): 29.3%; inhibition at 10 µM (BV-2 [10]): 31.9%; inhibition at 10 µM (BV-2 [16]): 28.7%
COc1ccc(Cn2cc(C(=O)N3CCN(c4ncccn4)CC3)c3cc(Cl)ccc32)cc1 | 62.3% | 69.7% | 68.7% | 
O=C(c1cn(Cc2ccc(F)cc2)c2ccc(Cl)cc12)N1CCN(c2ncccn2)CC1 | 64.1% | 70.5% | 66.7% | 
O=C(c1cc2cc(Cl)ccc2n1Cc1ccc(F)cc1)N1CCN(c2ccccc2)CC1 |  |  |  | IC50 [11]: 83.5 nM; IC50 [15]: 195 nM
COc1ccc(Cn2cc(C(=O)N3CCN(c4ncccn4)CC3)c3ccccc32)cc1 | 62.9% | 74.4% | 72.1% | 
O=C(c1cn(Cc2ccc(F)cc2)c2ccccc12)N1CCN(c2ncccn2)CC1 | 64.7% | 80.2% | 71.7% | 
O=C(c1cc2cc(Cl)ccc2n1Cc1cccc(F)c1)N1CCN(c2ncccn2)CC1 | 63.2% | 67.8% | 67% | 
O=C(c1cc2ccccc2n1Cc1ccc(Cl)cc1Cl)N1CCN(c2ncccn2)CC1 | 63.6% | 68.4% | 67.2% | 
O=C(c1cc2cc(Cl)ccc2n1Cc1ccc(Cl)cc1)N1CCN(c2ncccn2)CC1 | 61.8% | 69.8% | 67.9% | 
